Data taken from patent US20230096028A1, “BICYCLIC HETEROCYCLYL COMPOUNDS AND USES THEREOF” (Revolution Medicines, Inc., priority 2019, published 2023).
Where two headings read alike, the source gives them in different places.

Experiments:
[1] = target: T1, SOS1 catalytic domain (residues 564-1049) (Homo sapiens, UniProt Q07889); assay: Mode of Action Assay: inhibition of SOS1 nucleotide exchange activity (SOS1 TR-FRET IC50 Assay)
T1 sequence (Q07889 564-1049): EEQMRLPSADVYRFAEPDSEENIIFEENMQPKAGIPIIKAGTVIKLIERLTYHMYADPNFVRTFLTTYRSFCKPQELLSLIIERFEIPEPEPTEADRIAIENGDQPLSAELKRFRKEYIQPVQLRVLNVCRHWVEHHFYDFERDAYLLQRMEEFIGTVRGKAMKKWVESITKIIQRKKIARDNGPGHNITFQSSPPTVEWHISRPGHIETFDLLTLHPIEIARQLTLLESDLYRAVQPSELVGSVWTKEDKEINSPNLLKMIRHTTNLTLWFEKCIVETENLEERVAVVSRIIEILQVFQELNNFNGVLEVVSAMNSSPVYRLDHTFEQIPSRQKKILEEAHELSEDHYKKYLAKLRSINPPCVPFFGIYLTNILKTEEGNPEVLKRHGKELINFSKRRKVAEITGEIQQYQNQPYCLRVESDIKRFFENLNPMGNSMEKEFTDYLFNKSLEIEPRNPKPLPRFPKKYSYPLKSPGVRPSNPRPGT

[2] = system: PC-9 cells (EGFR Ex19Del); assay: Potency Assay: pERK (SOS1 pERK IC50 Assay, AlphaLISA SureFire Ultra p-ERK1/2); format: cell-based; conditions: Homo sapiens, read-out: SOS1 pERK IC50
Method: The purpose of this assay is to measure the ability of test compounds to inhibit SOS1 function in cells. SOS1 activates RAS proteins by catalyzing the conversion of RAS GDP to RAS GTP in response to receptor tyrosine kinase activation. […] The procedure described below measures the level of cellular pERK in response to test compounds in PC-9 cells (EGFR Ex19Del).
PC-9 cells were grown and maintained using media and procedures recommended by the ATCC. On the day prior to compound addition, cells were plated in 384-well cell culture plates (40 μL/well) and grown overnight in a 37° C., 5% CO2 incubator. Test compounds were prepared in 10, 3-fold dilutions in DMSO, with a top concentration of 10 mM. On the day of the assay, 40 nL of test compound was added to each well of cell culture plate using an Echo550 liquid handler (LabCyte). Concentrations of test compound were tested in duplicate with highest test concentration being 10 μM. After compound addition, cells were incubated for 1 hour at 37° C., 5% CO2. Following incubation, culture medium was removed and cells were washed once with phosphate buffered saline.
Cellular pERK level was determined using the AlphaLISA SureFire Ultra p-ERK1/2 Assay Kit (PerkinElmer). Cells were lysed in 25 μL lysis buffer, with shaking at 600 RPM at room temperature for 15 minutes. Lysate (10 μL) was transferred to a 384-well Opti-plate (PerkinElmer) and 5 μL acceptor mix was added. The plate was centrifuged at 1000 RPM for 1 minute, and incubated in the dark for 2 hours. Following this incubation, 5 μL of donor mix was added, the plate was sealed and centrifuged at 1000 RPM for 1 minute, and the mixture was incubated for 2 hours at room temperature. Signal was read on an Envision plate reader (PerkinElmer) using standard AlphaLISA settings. Analysis of raw data was carried out in Excel (Microsoft) and Prism (GraphPad). Signal was plotted vs. the decadal logarithm of compound concentration, and IC50 was determined by fitting a 4-parameter sigmoidal concentration response model.

[3] = PC-9 cells (EGFR Ex19Del), 1 hour incubation, AlphaLISA p-ERK1/2

Row | Structure (SMILES) | IC50 [1] | IC50 [2, 3] | IC50 ([2]; PC-9, 1 h)
1 | Cc1nc2c(c(N[C@H](C)c3cc(N)cc(C(F)(F)F)c3)n1)CN(S(=O)(=O)N1CCN(C)CC1)C2 [Example 38, (R)—N-(1-(3-amino-5-(trifluoromethyl)phenyl)ethyl)-2-methyl-6-((4-methylpiperazin-1-yl)sulfonyl)-6,7-dihydro-5H-pyrrolo[3,4-d]pyrimidin-4-amine] | < 1 µM | < 1 µM | 
2 | C[C@@H](Nc1ncnc2c1CN(CC1CCOC1)C2)c1cc(N)cc(C(F)(F)F)c1 (stereo partly drawn) [Example 54, N-[(1R)-1-[3-amino-5-(trifluoromethyl)phenyl]ethyl]-6-(tetrahydrofuran-3-ylmethyl)-5,7-dihydropyrrolo[3,4-d]pyrimidin-4-amine] | > 1 µM | > 1 µM | 
3 | C[C@@H](Nc1nc(O)nc2c1CN(C(=O)N1CCOCC1)C2)c1cc(N)cc(C(F)(F)F)c1 [Example 55] | < 1 µM | > 1 µM | 
4 | Cc1nc2c(c(N[C@H](C)c3cc(N)cc(C(F)(F)F)c3)n1)CN(CC1CCOC1)CC2 (stereo partly drawn) [Example 56, N-[(1R)-1-[3-amino-5-(trifluoromethyl)phenyl]ethyl]-2-methyl-6-(tetrahydrofuran-3-ylmethyl)-7,8-dihydro-5H-pyrido[4,3-d]pyrimidin-4-amine] | < 1 µM | > 1 µM | 
5 | C[C@@H](Nc1nc(Cl)nc2c1CN([C@H]1CC[C@H](C(=O)N(C)C)CC1)C2)c1cc(N)cc(C(F)(F)F)c1 [Example 57, 4-[4-[[(1R)-1-[3-amino-5-(trifluoromethyl)phenyl]ethyl]amino]-2-chloro-5,7-dihydropyrrolo[3,4-d]pyrimidin-6-yl]-N,N-dimethyl-cyclohexanecarboxamide] | > 1 µM | > 1 µM | 
6 | C[C@@H](Nc1nc(Cl)nc2c1CN(C(=O)C1CCN(C)CC1)C2)c1cc(N)cc(C(F)(F)F)c1 [Example 58, [4-[[(1R)-1-[3-amino-5-(trifluoromethyl)phenyl]ethyl]amino]-2-chloro-5,7-dihydropyrrolo[3,4-d]pyrimidin-6-yl]-(1-methyl-4-piperidyl)methanone] | < 1 µM |  | < 1 µM
7 | Cc1nc2c(c(N[C@H](C)c3cc(N)cc(C(F)(F)F)c3)n1)CN(C(=O)C1CCN(C)CC1)C2 [Example 109, [4-[[(1R)-1-[3-amino-5-(trifluoromethyl)phenyl]ethyl]amino]-2-methyl-5,7-dihydropyrrolo[3,4-d]pyrimidin-6-yl]-(1-methyl-4-piperidyl)methanone] | < 1 µM |  | > 1 µM

Now from value to compound, other results behind:

Row | IC50 [1] | IC50 [2, 3] | Structure (SMILES) | IC50 ([2]; PC-9, 1 h)
8 | > 1 µM | > 1 µM | Cc1nc2c(c(N[C@H](C)c3cc(N)cc(C(F)(F)F)c3)n1)CN(CC1CCOC1)C2 (stereo partly drawn) [Example 111, N-[(1R)-1-[3-amino-5-(trifluoromethyl)phenyl]ethyl]-2-methyl-6-(tetrahydrofuran-3-ylmethyl)-5,7-dihydropyrrolo[3,4-d]pyrimidin-4-amine] | 
9 | > 1 µM | > 1 µM | Cc1nc2c(c(N[C@H](C)c3cc(N)cc(C(F)(F)F)c3)n1)CCN(C(=O)N1CCOCC1)CC2 [Example 112, N-[(1R)-1-[3-amino-5-(trifluoromethyl)phenyl]ethyl]-2-methyl-7-(morpholine-4-carbonyl)-5H,6H,7H,8H,9H-pyrimido[4,5-d]-azepin-4-amine] | 
10 | < 1 µM | < 1 µM | C[C@@H](Nc1nc(Cl)nc2c1CN(C(=O)N1CCOC(c3cccnc3)C1)C2)c1cc(N)cc(C(F)(F)F)c1 (stereo partly drawn) [Example 151] | 
11 | < 1 µM | < 1 µM | C[C@@H](Nc1ncnc2c1CN(C1CCOCC1)C(=O)N2C)c1cc(N)cc(C(F)(F)F)c1 [Example 176, (R)-5-((1-(3-amino-5-(trifluoromethyl)phenyl)ethyl)amino)-1-methyl-3-(tetrahydro-2H-pyran-4-yl)-3,4-dihydropyrimido[4,5-d]pyrimidin-2(1H)-one] | 
12 | < 1 µM | > 1 µM | C[C@@H](Nc1nc(Cl)nc2c1CN(C1CNC1)CC2)c1cccc(C(F)(F)F)c1 [Example 177, (R)-6-(azetidin-3-yl)-2-chloro-N-(1-(3-(trifluoromethyl)phenyl)ethyl)-5,6,7,8-tetrahydropyrido[4,3-d]pyrimidin-4-amine] | 
